Assay results: patent US8187572B2, “Diabetogenic rat model” (Hoffmann-La Roche Inc., priority 2005, dated 2012)

Legend:
Assay type in all cases: in vivo, rat
[1] = Body weight, food intake and water intake of Pioglitazone-treated ZDF rats; settings: ZDF rats group_low, group_mild and group_full; chronic treatment (7 weeks), 10 mg/kg/d food-admix
Procedure: ZDF and ZL rats were ordered at the age of 5 W. After arrival and following 1 week of adaptation, 1 ml of blood was collected retro-orbitally after a short narcosis (isoflurane) in 6 W-old rats. […] A group of 10 ZL rats was formed and followed as a control group along the study duration (FIG. 3). Three groups of ZDF rats receive either vehicle (untreated) or Pioglitazone (treated) as food Admix. In each untreated/treated group of ZDF rats, one is fed a high fat diet during 11 weeks (group_full), during 4 weeks (group_mild) or during 2 weeks (group_low). Treatment was administered orally and prepared as food-admix. This mode of administration was preferred over oral gavage to reduce stress to the animals, avoid dosing errors and minimize handling. Pioglitazone (sufficient for 90 kg food) was dissolved in 18 liters of water. For the three treatment groups of 10 rats each, 6 liters of solution was combined with 30 kg of the diabetogenic diet (KLIBA 2437 with 7% of fat) or 12 liters were mixed with 60 Kg of the chow diet (Kliba 3436). The food was carefully dried at a temperature not exceeding 40° C. and then pelleted. […] The graphs and tables present the data according to expected daily dose. […] Body weight and food consumption were recorded with an on-line data acquisition system ([…]) using electronic balances.

ZDF rats [2] = assay: Oral glucose tolerance test (OGTT) with fasting parameters and HOMA in Pioglitazone-treated ZDF rats; settings: for HOMA (insulin resistance index) / fasting insulin levels: after 6 weeks of treatment
Procedure: ZDF and ZL rats were ordered at the age of 5 W. After arrival and following 1 week of adaptation, 1 ml of blood was collected retro-orbitally after a short narcosis (isoflurane) in 6 W-old rats. […] A group of 10 ZL rats was formed and followed as a control group along the study duration (FIG. 3). Three groups of ZDF rats receive either vehicle (untreated) or Pioglitazone (treated) as food Admix. In each untreated/treated group of ZDF rats, one is fed a high fat diet during 11 weeks (group_full), during 4 weeks (group_mild) or during 2 weeks (group_low). Treatment was administered orally and prepared as food-admix. This mode of administration was preferred over oral gavage to reduce stress to the animals, avoid dosing errors and minimize handling. Pioglitazone (sufficient for 90 kg food) was dissolved in 18 liters of water. For the three treatment groups of 10 rats each, 6 liters of solution was combined with 30 kg of the diabetogenic diet (KLIBA 2437 with 7% of fat) or 12 liters were mixed with 60 Kg of the chow diet (Kliba 3436). The food was carefully dried at a temperature not exceeding 40° C. and then pelleted. […] The graphs and tables present the data according to expected daily dose. […] Blood was then collected in conscious animals (tail vein) for baseline glucose and insulin measurements. […] Studying the evolution of blood glucose concentration along time after a load of glucose will give information about the ability of the organism to use glucose. Using the trapezoidal rule, glucose tolerance was calculated as area under the curve (AUC) of glucose concentration during 120 min and the change from baseline was calculated (delta AUC). HOMA index is also assessed during the OGTT by considering fasting insulin and fasting blood glucose (FBG) levels. HOMA: [FBG (mM)*(Fasting Insulin (μU))/22.5]. HOMA-index translates peripheral insulin resistance. Measurement of insulin was performed using Mercodia Rat Insulin ELISA kit.

ZDF rats [3] = assay: Intervention treatment with Pioglitazone in ZDF rats: post-prandial blood and plasma parameters; settings: for average plasma TG level: at the end of treatment
Procedure: ZDF and ZL rats were ordered at the age of 5 W. After arrival and following 1 week of adaptation, 1 ml of blood was collected retro-orbitally after a short narcosis (isoflurane) in 6 W-old rats. […] A group of 10 ZL rats was formed and followed as a control group along the study duration (FIG. 3). Three groups of ZDF rats receive either vehicle (untreated) or Pioglitazone (treated) as food Admix. In each untreated/treated group of ZDF rats, one is fed a high fat diet during 11 weeks (group_full), during 4 weeks (group_mild) or during 2 weeks (group_low). Treatment was administered orally and prepared as food-admix. This mode of administration was preferred over oral gavage to reduce stress to the animals, avoid dosing errors and minimize handling. Pioglitazone (sufficient for 90 kg food) was dissolved in 18 liters of water. For the three treatment groups of 10 rats each, 6 liters of solution was combined with 30 kg of the diabetogenic diet (KLIBA 2437 with 7% of fat) or 12 liters were mixed with 60 Kg of the chow diet (Kliba 3436). The food was carefully dried at a temperature not exceeding 40° C. and then pelleted. […] The graphs and tables present the data according to expected daily dose. […] Blood sampling was always performed in the morning (9-11 am) 2-to-5 hours after feeding session and 2 h after last oral dosing (food was removed at 7:00 am). Blood (≈200 μl) was harvested retro-orbitally from slightly anesthetized rats (isoflurane) into tubes containing EDTA and kept on ice bed until centrifugation (6000 RPM for 20 minutes at 4° C.). […] Main plasma biochemical parameters (glucose(Gluco-quant, e.g. […] Quantification of HbA1c (%) was performed in whole blood, using an immuno-turbidimetric assay (Tina-quant, e.g. 11822039 from Roche Molecular Diagnostics). Glycosylated haemoglobin (HbA1c) is formed by the non-enzymatic covalent attachment of glucose to normal haemoglobin (HbA). […] HbA1c is a predictor of diabetic complications and interventions that reduce HbA1c correspondingly reduce the risk of complications (UKPDS, 1998). […] Commercially available ELISA kits (LINCO®) were used to quantify plasma concentration of insulin and adiponectin. Adiponectin is an adipokine which is […] and fasting plasma insulin concentration (Goldstein, 2002). Adiponectin plasma concentrations are decreased in […] patients and despite the fact that it is produced by adipocytes, as an individual becomes more obese, the adiponectine is decreased and insulin resistance increases ([…] et al., 1999).

CCc1ccc(CCOc2ccc(CC3SC(=O)NC3=O)cc2)nc1.Cl (racemic) [Pioglitazone, (±)-5-[[4-[2-(5-ethyl-2-pyridinyl)ethoxy]phenyl]methyl]-2,4-]
increase in BW versus vehicle [1]: ≈ 30% | improvement of glucose tolerance (AUC) compared to vehicle (ZDF rats [2]; group_full, OGTT after 6 weeks of treatment): 31% | HOMA (insulin resistance index) (ZDF rats [2]; group_full): 14.1±2.7 | fasting insulin levels (ZDF rats [2]; group_full): 2.0 ± 0.4 ng/mL | FBG (ZDF rats [2]; group_full, after 7 weeks of treatment): 6.7 ± 0.9 mM | AUC reduced compared to vehicle (ZDF rats [2]; group_low, OGTT after 6 weeks of treatment): 36% | glucose excursion AUC (ZDF rats [2]; group_low, OGTT after 6 weeks of treatment, ZL 779±15): 1000±48 | fasting insulin levels (ZDF rats [2]; group_low): 1.7 ng/mL | HOMA (insulin resistance index) (ZDF rats [2]; group_low, ZL 2.0±0.1): 9.4±0.8 | FBG (ZDF rats [2]; group_low, vehicle 6.9±0.4, ZL 4.3±0.0): 5.1 ± 0.1 mM | improvement of glucose tolerance (AUC) compared to vehicle (ZDF rats [2]; group_mild, OGTT after 6 weeks of treatment): 29% | HOMA (insulin resistance index) (ZDF rats [2]; group_mild): 10.9±1.9 | fasting insulin levels (ZDF rats [2]; group_mild): 1.6 ± 0.3 ng/mL | FBG (ZDF rats [2]; group_mild, after 7 weeks of treatment): 6.6 ± 1.3 mM | plasma total cholesterol levels (ZDF rats [3]; any of the treatment groups): did not change | reduction of plasma triglyceride levels compared to vehicle (ZDF rats [3]; group_full (fully diabetic ZDF rats)): 69.5±5.2% | HbA1C (ZDF rats [3]; group_full ZDF rats, 10 mg/kg): significant reduction | blood glucose levels (ZDF rats [3]; group_full ZDF rats, apparent after 2 weeks, partially maintained, 10 mg/kg): strongly reduced | hyperinsulinemia (ZDF rats [3]; group_full ZDF rats, at the beginning of treatment, effect gone after 5 weeks): significantly reduced | average plasma TG level (ZDF rats [3]; group_full): 2.8 ± 0.5 mM | plasma TG levels (ZDF rats [3]; group_full, compared with ZL 1.1±0.1): 2.9 ± 0.6 mM | plasma NEFA levels (ZDF rats [3]; group_full, data not shown): moderate improvement | hypertriglyceridemia (ZDF rats [3]; group_low): almost completely and immediately normalized | development of hyperglycaemia and increase in HbA1c (ZDF rats [3]; group_low (moderately diabetic ZDF rats), values similar to untreated ZL rats): fully prevented | average plasma TG level (ZDF rats [3]; group_low): 1.6 ± 0.1 mM | insulin levels (ZDF rats [3]; group_low, end of the 7 week treatment period, ZL 0.8±0.1): 2.1 ± 0.2 ng/mL | hyperinsulinemia (ZDF rats [3]; group_low, starting at week 2 of treatment, maintained until end of study): strongly reversed
